Experimental data as given in the NIST ThermoML archive (doi:10.1016/j.fluid.2017.09.023).
± gives the expanded uncertainty stated by the source.

Details: Crystal, Transpiration method

CC(=O)Nc1ccccc1 [N-phenylethanamide]
Details	vapor or sublimation pressure [kPa]
316.3 K	9e-05 ± 2e-05
320.3 K	0.00015 ± 2e-05
322.3 K	0.00018 ± 2e-05
323.2 K	0.00021 ± 2e-05
325.3 K	0.00025 ± 2e-05
327 K	0.0003 ± 2e-05
328.1 K	0.00035 ± 3e-05
328.2 K	0.00033 ± 2e-05
333.3 K	0.0006 ± 5e-05
334.3 K	0.00064 ± 5e-05
337.1 K	0.00088 ± 7e-05
339.4 K	0.00114 ± 8e-05
340.3 K	0.00119 ± 8e-05
342.4 K	0.00159 ± 0.0001
345.5 K	0.00205 ± 0.00014
346.1 K	0.00214 ± 0.00015
347.2 K	0.0024 ± 0.00016
349.4 K	0.00299 ± 0.0002
351.2 K	0.00356 ± 0.00023
352.5 K	0.00422 ± 0.00028
355.5 K	0.00532 ± 0.00038
356.4 K	0.00601 ± 0.00043
357.4 K	0.00636 ± 0.00044
359.2 K	0.00759 ± 0.00052
360.2 K	0.00852 ± 0.00059
362.2 K	0.01028 ± 0.0007
364.3 K	0.01261 ± 0.00085
365.3 K	0.01406 ± 0.00095
366.7 K	0.01576 ± 0.001
368.4 K	0.01777 ± 0.0012
369.2 K	0.01911 ± 0.0013
372.2 K	0.02411 ± 0.0016
